Reference: PubChem BioAssay (NCI)
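96-well plates; 48 h exposure; 5 concentrations. Endpoints by linear interpolation between flanking doses. Not reached: highest tested concentration assigned. TGI is the concentration that stops growth completely.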

Experiments:
Experiment in all cases: inhibition of tumour cell growth, NCI panel, 48 h
786-0 renal = system: 786-0 renal
A549 NSCLC = system: A549 NSCLC
ACHN renal = system: ACHN renal
CAKI-1 renal = system: CAKI-1 renal
CCRF-CEM leukemia = system: CCRF-CEM leukemia
COLO 205 colon = system: COLO 205 colon
DLD-1 colon = system: DLD-1 colon
DMS 114 small cell lung = system: DMS 114 small cell lung
EKVX NSCLC = system: EKVX NSCLC
HCC-2998 colon = system: HCC-2998 colon
HCT-116 colon = system: HCT-116 colon
HCT-15 colon = system: HCT-15 colon
HL-60(TB) leukemia = system: HL-60(TB) leukemia
HOP-18 NSCLC = system: HOP-18 NSCLC
HOP-62 NSCLC = system: HOP-62 NSCLC
HOP-92 NSCLC = system: HOP-92 NSCLC
HT29 colon = system: HT29 colon
IGROV1 ovarian = system: IGROV1 ovarian
K-562 leukemia = system: K-562 leukemia
KM12 colon = system: KM12 colon
KM20L2 colon = system: KM20L2 colon
LOX IMVI melanoma = system: LOX IMVI melanoma
LXFL 529 NSCLC = system: LXFL 529 NSCLC
M14 melanoma = system: M14 melanoma
M19-MEL melanoma = system: M19-MEL melanoma
MALME-3M melanoma = system: MALME-3M melanoma
MOLT-4 leukemia = system: MOLT-4 leukemia
NCI-H226 lung = system: NCI-H226 lung
NCI-H23 lung = system: NCI-H23 lung
NCI-H460 lung = system: NCI-H460 lung
NCI-H522 lung = system: NCI-H522 lung
OVCAR-3 ovarian = system: OVCAR-3 ovarian
OVCAR-4 ovarian = system: OVCAR-4 ovarian
OVCAR-5 ovarian = system: OVCAR-5 ovarian
OVCAR-8 ovarian = system: OVCAR-8 ovarian
RXF 393 renal = system: RXF 393 renal
RXF-631 renal = system: RXF-631 renal
SF-268 CNS = system: SF-268 CNS
SF-295 CNS = system: SF-295 CNS
SF-539 CNS = system: SF-539 CNS
SK-MEL-2 melanoma = system: SK-MEL-2 melanoma
SK-MEL-28 melanoma = system: SK-MEL-28 melanoma
SK-OV-3 ovarian = system: SK-OV-3 ovarian
SN12C renal = system: SN12C renal
SNB-19 CNS = system: SNB-19 CNS
SNB-75 CNS = system: SNB-75 CNS
SNB-78 CNS = system: SNB-78 CNS
SR leukemia = system: SR leukemia
SW-620 colon = system: SW-620 colon
TK-10 renal = system: TK-10 renal
U251 CNS = system: U251 CNS
UACC-257 melanoma = system: UACC-257 melanoma
UACC-62 melanoma = system: UACC-62 melanoma
UO-31 renal = system: UO-31 renal
XF 498 CNS = system: XF 498 CNS
A498 renal = system: A498 renal
DMS 273 small cell lung = system: DMS 273 small cell lung
RPMI-8226 leukemia = system: RPMI-8226 leukemia
SK-MEL-5 melanoma = system: SK-MEL-5 melanoma

With `C=CC1=C(C)C(/C=c2\[nH]/c(=C/c3[nH]c(CC4NC(=O)C(C)/C4=C\C)c(C)c3CCC(=O)O)c(CC(=O)O)c2C)=NC1=O` (configuration not stated) the TGI (786-0 renal) was greater than 100 µM, the TGI (A549 NSCLC) was greater than 100 µM and the TGI (ACHN renal) was greater than 100 µM. The TGI (CAKI-1 renal) was greater than 100 µM, the TGI (CCRF-CEM leukemia) was greater than 100 µM and the TGI (COLO 205 colon) was greater than 100 µM. For the same compound, the TGI (DLD-1 colon) was greater than 100 µM, the TGI (DMS 114 small cell lung) was greater than 100 µM and the TGI (EKVX NSCLC) was greater than 100 µM. The TGI (HCC-2998 colon) was greater than 100 µM, the TGI (HCT-116 colon) was greater than 100 µM and the TGI (HCT-15 colon) was greater than 100 µM. For the same compound, the TGI (HL-60(TB) leukemia) was greater than 100 µM, the TGI (HOP-18 NSCLC) was greater than 100 µM and the TGI (HOP-62 NSCLC) was greater than 100 µM. The TGI (HOP-92 NSCLC) was greater than 100 µM, the TGI (HT29 colon) was greater than 100 µM and the TGI (IGROV1 ovarian) was greater than 100 µM. It also gave a TGI (K-562 leukemia) greater than 100 µM, a TGI (KM12 colon) greater than 100 µM and a TGI (KM20L2 colon) greater than 100 µM. It also gave a TGI (LOX IMVI melanoma) greater than 100 µM, a TGI (LXFL 529 NSCLC) greater than 100 µM and a TGI (M14 melanoma) greater than 100 µM. The TGI (M19-MEL melanoma) was greater than 100 µM, the TGI (MALME-3M melanoma) was greater than 100 µM and the TGI (MOLT-4 leukemia) was greater than 100 µM. For the same compound, the TGI (NCI-H226 lung) was greater than 100 µM, the TGI (NCI-H23 lung) was greater than 100 µM and the TGI (NCI-H460 lung) was greater than 100 µM. For the same compound, the TGI (NCI-H522 lung) was greater than 100 µM, the TGI (OVCAR-3 ovarian) was greater than 100 µM and the TGI (OVCAR-4 ovarian) was greater than 100 µM. For the same compound, the TGI (OVCAR-5 ovarian) was greater than 100 µM, the TGI (OVCAR-8 ovarian) was greater than 100 µM and the TGI (RXF 393 renal) was greater than 100 µM. The TGI (RXF-631 renal) was greater than 100 µM, the TGI (SF-268 CNS) was greater than 100 µM and the TGI (SF-295 CNS) was greater than 100 µM. For the same compound, the TGI (SF-539 CNS) was greater than 100 µM, the TGI (SK-MEL-2 melanoma) was greater than 100 µM and the TGI (SK-MEL-28 melanoma) was greater than 100 µM. The TGI (SK-OV-3 ovarian) was greater than 100 µM, the TGI (SN12C renal) was greater than 100 µM and the TGI (SNB-19 CNS) was greater than 100 µM. For the same compound, the TGI (SNB-75 CNS) was greater than 100 µM, the TGI (SNB-78 CNS) was greater than 100 µM and the TGI (SR leukemia) was greater than 100 µM. For the same compound, the TGI (SW-620 colon) was greater than 100 µM, the TGI (TK-10 renal) was greater than 100 µM and the TGI (U251 CNS) was greater than 100 µM. For the same compound, the TGI (UACC-257 melanoma) was greater than 100 µM, the TGI (UACC-62 melanoma) was greater than 100 µM and the TGI (UO-31 renal) was greater than 100 µM. It also gave a TGI (XF 498 CNS) greater than 100 µM.

With `O=C(CC12C3C4C1C1C2C3C41CC(=O)NO)NO` (configuration not stated) the TGI (786-0 renal) was greater than 100 µM, the TGI (A498 renal) was 76.1 µM and the TGI (A549 NSCLC) was greater than 100 µM. It also gave a TGI (ACHN renal) greater than 100 µM, a TGI (CAKI-1 renal) greater than 100 µM and a TGI (CCRF-CEM leukemia) of 80.1 µM. For the same compound, the TGI (COLO 205 colon) was greater than 100 µM, the TGI (DLD-1 colon) was greater than 100 µM and the TGI (DMS 114 small cell lung) was 60.6 µM. It also gave a TGI (DMS 273 small cell lung) greater than 100 µM, a TGI (EKVX NSCLC) greater than 100 µM and a TGI (HCC-2998 colon) greater than 100 µM. The TGI (HCT-116 colon) was greater than 100 µM, the TGI (HCT-15 colon) was greater than 100 µM and the TGI (HL-60(TB) leukemia) was 86.2 µM. It also gave a TGI (HOP-62 NSCLC) greater than 100 µM, a TGI (HOP-92 NSCLC) of 97 µM and a TGI (HT29 colon) of 88.7 µM. It also gave a TGI (K-562 leukemia) of 87.1 µM, a TGI (KM12 colon) greater than 100 µM and a TGI (KM20L2 colon) greater than 100 µM. For the same compound, the TGI (LOX IMVI melanoma) was 74.5 µM, the TGI (LXFL 529 NSCLC) was greater than 100 µM and the TGI (M14 melanoma) was greater than 100 µM. It also gave a TGI (MALME-3M melanoma) greater than 100 µM, a TGI (MOLT-4 leukemia) greater than 100 µM and a TGI (NCI-H226 lung) of 94.3 µM. The TGI (NCI-H23 lung) was greater than 100 µM, the TGI (NCI-H460 lung) was 62.5 µM and the TGI (NCI-H522 lung) was 77.4 µM. For the same compound, the TGI (OVCAR-3 ovarian) was greater than 100 µM, the TGI (OVCAR-5 ovarian) was greater than 100 µM and the TGI (OVCAR-8 ovarian) was greater than 100 µM. For the same compound, the TGI (RPMI-8226 leukemia) was greater than 100 µM, the TGI (RXF-631 renal) was greater than 100 µM and the TGI (SF-268 CNS) was greater than 100 µM. For the same compound, the TGI (SF-295 CNS) was greater than 100 µM, the TGI (SF-539 CNS) was greater than 100 µM and the TGI (SK-MEL-2 melanoma) was greater than 100 µM. For the same compound, the TGI (SK-MEL-28 melanoma) was greater than 100 µM, the TGI (SK-MEL-5 melanoma) was greater than 100 µM and the TGI (SN12C renal) was greater than 100 µM. For the same compound, the TGI (SNB-19 CNS) was greater than 100 µM, the TGI (SNB-75 CNS) was 81 µM and the TGI (SNB-78 CNS) was greater than 100 µM. It also gave a TGI (SR leukemia) greater than 100 µM, a TGI (SW-620 colon) greater than 100 µM and a TGI (TK-10 renal) greater than 100 µM. The TGI (U251 CNS) was greater than 100 µM, the TGI (UACC-257 melanoma) was 64.3 µM and the TGI (UACC-62 melanoma) was greater than 100 µM. It also gave a TGI (XF 498 CNS) greater than 100 µM.
